Assay results reported in ChEMBL document CHEMBL1153638, “Prolonged stability by cyclization: Macrocyclic phosphino dipeptide isostere inhibitors of beta-secretase (BACE1)” (Bioorg Med Chem Lett, 2009).
Numbered stars: 1 amine (or outer) side, 2 acyl side, 3 side chain; on linkers, the order of the positions; unused ones are H or OH. Square brackets hold non-standard residues; d marks the D form. Peptide text beside a SMILES is read from it. X1 = CC(C)C[C@H](N[*:1])P(=O)(O)C[C@@H](C)C(=O)[*:2]

Experiments:
Beta-secretase 1 [1] = target: T1, Beta-secretase 1 (Homo sapiens, UniProt P56817); test: Inhibition of ectodomain of BACE1 secreted from […] cells by fluorimetry; assay type: cell-based
[2] = Stability in human serum after 160 mins; assay type: ADME, cell-free; conditions: read-out: Stability
[3] = Stability in human serum assessed as half life; assay type: ADME, cell-free
[4] = Stability in human serum after 120 mins; assay type: ADME, cell-free; conditions: read-out: Stability
Beta-secretase 1 [5] = target: T1, Beta-secretase 1; test: Inhibition of full-domain of BACE1 expressed in […] cells; assay type: cell-based

T1 sequence (P56817 whole entry, the tested form may be a part): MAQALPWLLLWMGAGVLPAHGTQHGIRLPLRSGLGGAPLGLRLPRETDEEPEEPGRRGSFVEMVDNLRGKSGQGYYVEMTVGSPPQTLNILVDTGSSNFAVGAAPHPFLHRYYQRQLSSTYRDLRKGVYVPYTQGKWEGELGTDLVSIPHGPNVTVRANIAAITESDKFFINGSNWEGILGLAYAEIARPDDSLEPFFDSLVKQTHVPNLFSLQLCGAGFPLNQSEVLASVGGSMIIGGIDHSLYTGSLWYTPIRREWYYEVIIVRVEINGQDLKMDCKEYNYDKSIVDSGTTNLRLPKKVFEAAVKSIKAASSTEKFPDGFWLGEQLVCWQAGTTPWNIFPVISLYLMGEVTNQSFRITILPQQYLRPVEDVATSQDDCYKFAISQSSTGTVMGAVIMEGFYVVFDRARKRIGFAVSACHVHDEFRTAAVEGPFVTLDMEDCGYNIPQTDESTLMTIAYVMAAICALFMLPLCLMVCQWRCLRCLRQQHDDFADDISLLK

Compound	IC50 (Beta-secretase 1 [1]) [nM]	remaining at 160 min [2] [%]	half-life [3] [min]	remaining at 2 h [4] [%]	IC50 (Beta-secretase 1 [5]) [nM]
CC(CP(=O)(O)C1CCCCCC[C@H](NC(=O)[C@@H](N)CCC(=O)O)C(=O)N[C@@H](CC(=O)O)C(=O)N1)C(=O)N[C@H](C(=O)N[C@@H](CCC(=O)O)C(=O)N[C@@H](Cc1ccccc1)C(=O)O)C(C)C (mixture of isomers; form 4)	808				
CC(CP(=O)(O)C1CCCCCC[C@H](NC(=O)[C@@H](N)CCC(=O)O)C(=O)N[C@@H](CC(=O)O)C(=O)N1)C(=O)N[C@H](C(=O)N[C@@H](CCC(=O)O)C(=O)N[C@@H](Cc1ccccc1)C(=O)O)C(C)C (mixture of isomers; form 1)	47	20	43.9		
CC(C)C[C@H](NC(=O)[C@@H](N)CCC(=O)O)C(=O)N[C@@H](CC(=O)O)C(=O)N[C@@H](CC(C)C)P(=O)(O)C[C@@H](C)C(=O)N[C@H](C(=O)N[C@@H](CCC(=O)O)C(=O)N[C@@H](Cc1ccccc1)C(=O)O)C(C)C (H-ELD[X1]VEF-OH)			14.8	20	12
CC(CP(=O)(O)C1CCCCCC[C@H](NC(=O)[C@@H](N)CCC(=O)O)C(=O)N[C@@H](CC(=O)O)C(=O)N1)C(=O)N[C@H](C(=O)N[C@@H](CCC(=O)O)C(=O)N[C@@H](Cc1ccccc1)C(=O)O)C(C)C (mixture of isomers; form 2)	320				
CC(CP(=O)(O)C1CCCCCC[C@H](NC(=O)[C@@H](N)CCC(=O)O)C(=O)N[C@@H](CC(=O)O)C(=O)N1)C(=O)N[C@H](C(=O)N[C@@H](CCC(=O)O)C(=O)N[C@@H](Cc1ccccc1)C(=O)O)C(C)C (mixture of isomers; form 3)	522				
